US20230002374A1, “GPR52 MODULATOR COMPOUNDS” (Heptares Therapeutics Limited, priority 2019, published 2023)
Read-outs that look alike come from different tables or passages of the source.

Molecular target: human GPR52 (Homo sapiens, UniProt Q9Y2T5)
Assay: GPR52 Agonist Functional cAMP Assay;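 note: HEKf cells transduced with GPR52 BacMam for 24 h, 2000 per well, exposed to compounds 30 min at 37° C with 0.5 mM IBMX, cAMP read by HTRF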
Details: for EC50: pEC50 average, HEKf cells infected with human GPR52 BacMam virus, cAMP HTRF, 30 min at 37° C.
[1] = maximal response normalised to DMSO (0%) and maximal compound 7m (J. Med. Chem., 2014, 57, 5226) response (100%)

human GPR52, sequence (Q9Y2T5 whole entry): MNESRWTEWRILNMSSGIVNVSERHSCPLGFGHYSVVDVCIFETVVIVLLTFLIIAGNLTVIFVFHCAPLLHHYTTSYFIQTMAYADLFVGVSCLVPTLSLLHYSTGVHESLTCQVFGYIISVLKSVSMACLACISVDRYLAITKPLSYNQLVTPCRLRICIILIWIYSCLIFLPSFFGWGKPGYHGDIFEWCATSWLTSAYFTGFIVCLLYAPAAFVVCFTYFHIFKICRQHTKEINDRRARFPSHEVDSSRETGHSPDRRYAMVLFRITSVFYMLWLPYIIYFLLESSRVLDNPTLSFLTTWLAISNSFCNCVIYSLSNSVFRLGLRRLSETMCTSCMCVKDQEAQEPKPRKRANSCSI
Procedure: Following BacMam infection, cells were pelleted by centrifugation (335 g, 5 min), resuspended in cell freezing medium (Sigma) and frozen at −150° C. until required. On experiment day, 25 nL GPR52 compound dilutions, prepared in DMSO, were stamped onto proxiplates (PerkinElmer) by a LabCyte ECHO acoustic dispenser. Frozen cells were thawed and resuspended in assay stimulation buffer (Cisbio) containing 0.5 mM 3-iso-butyl-1-methylxanthine (IBMX, Sigma) to achieve a density of 2000 cells per well. 10 μl cells were added to assay plates using a Multidrop Combi Reagent Dispenser (ThermoFisher) before centrifugation (335 g, 1 min). Cells were incubated with compounds at 37° C. for 30 min prior to addition of cAMP detection reagents (HiRange cAMP kit, Cisbio) which were prepared according to the manufacturer's instructions. Plates were shaken for 1 h at room temperature before reading on a PHERAstar FS plate reader (BMG Labtech) using standard HTRF settings.

Emax [1] [%]	EC50 [nM]	SMILES	Emax [%]
94	20	Cc1nn(-c2ccnc(Cc3cccc(C(F)(F)F)c3)c2)c2c1C(=O)NCC2 [Example 78, 3-methyl-1-(2-(3-(trifluoromethyl)benzyl)pyridin-4-yl)-1,5,6,7-tetrahydro-4H-pyrazolo[4,3-c]pyridin-4-one]	
99	12.6	Cc1nn(-c2ccnc(Cc3cc(F)cc(Cl)c3)c2)c2c1C(=O)NCC2 [Example 79, 1-(2-(3-chloro-5-fluorobenzyl)pyridin-4-yl)-3-methyl-1,5,6,7-tetrahydro-4H-pyrazolo[4,3-c]pyridin-4-one]	
97	10	Cc1nn(-c2ccnc(Cc3ccc(F)c(Cl)c3)c2)c2c1C(=O)NCC2 [Example 80, 1-(2-(3-chloro-4-fluorobenzyl)pyridin-4-yl)-3-methyl-1,5,6,7-tetrahydro-4H-pyrazolo[4,3-c]pyridin-4-one]	
70	10	Cc1nn(-c2ccnc(Cc3ccc(OC(F)F)c(F)c3)c2)c2c1C(=O)NCC2 [Example 81, 1-(2-(4-(difluoromethoxy)-3-fluorobenzyl)pyridin-4-yl)-3-methyl-1,5,6,7-tetrahydro-4H-pyrazolo[4,3-c]pyridin-4-one]	
93	25.1	Cc1cc(Cc2ccnc(-n3nc(C)c4c3CCNC4=O)c2)cnc1F [Example 83, 1-(4-((6-fluoro-5-methylpyridin-3-yl)methyl)pyridin-2-yl)-3-methyl-1,5,6,7-tetrahydro-4H-pyrazolo[4,3-c]pyridin-4-one]	
96	63.1	Cc1nn(-c2ccnc(Cc3cc(F)cc(C#N)c3)c2)c2c1C(=O)NCC2 [Example 85, 3-fluoro-5-((4-(3-methyl-4-oxo-4,5,6,7-tetrahydro-1H-pyrazolo[4,3-c]pyridin-1-yl)pyridin-2-yl)methyl)benzonitrile]	
102	3.16	Cc1nn(-c2ccnc(Cc3cc(F)c(F)c(C(F)(F)F)c3)c2)c2c1C(=O)NCC2 [Example 86, 1-(2-(3,4-difluoro-5-(trifluoromethyl)benzyl)pyridin-4-yl)-3-methyl-1,5,6,7-tetrahydro-4H-pyrazolo[4,3-c]pyridin-4-one]	
95	6.31	Cc1nn(-c2ccnc(Cc3cc(F)c(Cl)c(C(F)(F)F)c3)c2)c2c1C(=O)NCC2 [Example 87, 1-(2-(4-chloro-3-fluoro-5-(trifluoromethyl)benzyl)pyridin-4-yl)-3-methyl-1,5,6,7-tetrahydro-4H-pyrazolo[4,3-c]pyridin-4-one]	
100	5.01	Cc1nn(-c2ccnc(Cc3cc(Cl)c(F)c(C(F)(F)F)c3)c2)c2c1C(=O)NCC2 [Example 88, 1-(2-(3-chloro-4-fluoro-5-(trifluoromethyl)benzyl)pyridin-4-yl)-3-methyl-1,5,6,7-tetrahydro-4H-pyrazolo[4,3-c]pyridin-4-one]	
87	20	Cc1nn(-c2ccnc(Cc3cc(F)c(Cl)c(F)c3)c2)c2c1C(=O)NCC2 [Example 90, 1-(2-(4-chloro-3,5-difluorobenzyl)pyridin-4-yl)-3-methyl-1,5,6,7-tetrahydro-4H-pyrazolo[4,3-c]pyridin-4-one]	
74	631	COc1ccc(Cc2cc(-n3nc(C)c4c3CCNC4=O)ccn2)cn1 [Example 92, 1-(2-((6-methoxypyridin-3-yl)methyl)pyridin-4-yl)-3-methyl-1,5,6,7-tetrahydro-4H-pyrazolo[4,3-c]pyridin-4-one]	
83	100	COc1ncc(Cc2cc(-n3nc(C)c4c3CCNC4=O)ccn2)cc1F [Example 93, 1-(2-((5-fluoro-6-methoxypyridin-3-yl)methyl)pyridin-4-yl)-3-methyl-1,5,6,7-tetrahydro-4H-pyrazolo[4,3-c]pyridin-4-one]	
78	398	Cc1nn(-c2ccnc(Cc3ccc(OC(F)F)nc3)c2)c2c1C(=O)NCC2 [Example 94, 1-(2-((6-(difluoromethoxy)pyridin-3-yl)methyl)pyridin-4-yl)-3-methyl-1,5,6,7-tetrahydro-4H-pyrazolo[4,3-c]pyridin-4-one]	
98	6.31	Cc1nn(-c2cc(Cc3cc(F)cc(C(F)(F)F)c3)ccn2)c2c1C(=O)NCC2 [Example 95, 1-(4-(3-fluoro-5-(trifluoromethyl)benzyl)pyridin-2-yl)-3-methyl-1,5,6,7-tetrahydro-4H-pyrazolo[4,3-c]pyridin-4-one]	
94	794	N#Cc1cc(F)cc(Cc2cc(-n3ncc4c3CCNC4=O)ccn2)c1 [Example 96, 3-fluoro-5-((4-(4-oxo-4,5,6,7-tetrahydro-1H-pyrazolo[4,3-c]pyridin-1-yl)pyridin-2-yl)methyl)benzonitrile]	
74	501	O=C1NCCc2c1cnn2-c1ccnc(Cc2cnc(OC(F)F)c(F)c2)c1 [Example 110, 1-(2-((6-(difluoromethoxy)-5-fluoropyridin-3-yl)methyl)pyridin-4-yl)-1,5,6,7-tetrahydro-4H-pyrazolo[4,3-c]pyridin-4-one]	
87	63.1	Cc1nn(-c2ccnc(Cc3cnc(OC(F)F)c(F)c3)c2)c2c1C(=O)NCC2 [Example 111, 1-(2-((6-(difluoromethoxy)-5-fluoropyridin-3-yl)methyl)pyridin-4-yl)-3-methyl-1,5,6,7-tetrahydro-4H-pyrazolo[4,3-c]pyridin-4-one]	
93	39.8	O=C1NCCc2c1c(CO)nn2-c1ccnc(Cc2cc(F)cc(C(F)(F)F)c2)c1 [Example 114, 1-(2-(3-fluoro-5-(trifluoromethyl)benzyl)pyridin-4-yl)-3-(hydroxymethyl)-1,5,6,7-tetrahydro-4H-pyrazolo[4,3-c]pyridin-4-one]	

The remaining lines, values behind:

SMILES	Emax [1] [%]	EC50 [nM]	Emax [%]
Cc1nn(-c2ccnc(Cc3cc(F)c(F)c(Cl)c3)c2)c2c1C(=O)NCC2 [Example 84, 1-(2-(3-chloro-4,5-difluorobenzyl)pyridin-4-yl)-3-methyl-1,5,6,7-tetrahydro-4H-pyrazolo[4,3-c]pyridin-4-one]		2.51	95
O=C1NCCCc2c1nnn2-c1ccnc(Cc2cc(F)cc(C(F)(F)F)c2)c1 [Example 97, 1-(2-(3-fluoro-5-(trifluoromethyl)benzyl)pyridin-4-yl)-5,6,7,8-tetrahydro-[1,2,3]triazolo[4,5-c]azepin-4(1H)-one]	90	2510	
O=C1NCCc2nn(-c3cc(Cc4cc(F)cc(C(F)(F)F)c4)ccn3)nc21 [Example 98, 2-(4-(3-fluoro-5-(trifluoromethyl)benzyl)pyridin-2-yl)-2,5,6,7-tetrahydro-4H-[1,2,3]triazolo[4,5-c]pyridin-4-one]	92	158	
O=C1NCCc2c1nnn2-c1cc(Cc2cc(F)cc(C(F)(F)F)c2)ccn1 [Example 99, 1-(4-(3-fluoro-5-(trifluoromethyl)benzyl)pyridin-2-yl)-1,5,6,7-tetrahydro-4H-[1,2,3]triazolo[4,5-c]pyridin-4-one]	95	126	
O=C1NCCc2c1cnn2-c1cc(Cc2cc(F)cc(C(F)F)c2)ccn1 [Example 102, 1-(4-(3-(difluoromethyl)-5-fluorobenzyl)pyridin-2-yl)-1,5,6,7-tetrahydro-4H-pyrazolo[4,3-c]pyridin-4-one]	98	10	
O=C1NCCc2c1cnn2-c1cncc(Oc2cc(F)cc(C(F)(F)F)c2)c1 [Example 103, 1-(5-(3-fluoro-5-(trifluoromethyl)phenoxy)pyridin-3-yl)-1,5,6,7-tetrahydro-4H-pyrazolo[4,3-c]pyridin-4-one]	68	1000	
COCCN1CCc2c(cnn2-c2ccnc(Cc3cc(F)cc(C(F)(F)F)c3)c2)C1=O [Example 104, 1-(2-(3-fluoro-5-(trifluoromethyl)benzyl)pyridin-4-yl)-5-(2-methoxyethyl)-1,5,6,7-tetrahydro-4H-pyrazolo[4,3-c]pyridin-4-one]	94	100	
O=C1c2cnn(-c3ccnc(Cc4cc(F)cc(C(F)(F)F)c4)c3)c2CCN1CCO [Example 105, 1-(2-(3-fluoro-5-(trifluoromethyl)benzyl)pyridin-4-yl)-5-(2-hydroxyethyl)-1,5,6,7-tetrahydro-4H-pyrazolo[4,3-c]pyridin-4-one]	97	63.1	
COCCN1CCc2c(cnn2-c2cc(Cc3cc(F)cc(C(F)(F)F)c3)ccn2)C1=O [Example 106, 1-(4-(3-fluoro-5-(trifluoromethyl)benzyl)pyridin-2-yl)-5-(2-methoxyethyl)-1,5,6,7-tetrahydro-4H-pyrazolo[4,3-c]pyridin-4-one]	86	31.6	
O=C1c2cnn(-c3cc(Cc4cc(F)cc(C(F)(F)F)c4)ccn3)c2CCN1CCO [Example 107, 1-(4-(3-fluoro-5-(trifluoromethyl)benzyl)pyridin-2-yl)-5-(2-hydroxyethyl)-1,5,6,7-tetrahydro-4H-pyrazolo[4,3-c]pyridin-4-one]	99	12.6	
Cc1cnc(Cc2cc(F)cc(C(F)(F)F)c2)cc1-n1ncc2c1CCNC2=O [Example 108, 1-(2-(3-fluoro-5-(trifluoromethyl)benzyl)-5-methylpyridin-4-yl)-1,5,6,7-tetrahydro-4H-pyrazolo[4,3-c]pyridin-4-one]	80	79.4	
O=C1NCCOc2nn(-c3ccnc(Cc4cc(F)cc(C(F)(F)F)c4)c3)cc21 [Example 112, 2-(2-(3-fluoro-5-(trifluoromethyl)benzyl)pyridin-4-yl)-6,7-dihydro-2H-pyrazolo[4,3-f][1,4]oxazepin-4(5H)-one]	77	398	
O=C1NCCc2c1c(CO)nn2-c1cc(Cc2cc(F)cc(C(F)(F)F)c2)ccn1 [Example 113, 1-(4-(3-fluoro-5-(trifluoromethyl)benzyl)pyridin-2-yl)-3-(hydroxymethyl)-1,5,6,7-tetrahydro-4H-pyrazolo[4,3-c]pyridin-4-one]	95	15.8	
